Literature values as cited in publication PMC5598522 (Toxicology Reports, 2014).

Key:
[1] = cited from earlier work
[2] = Wistar rats; cited from earlier work
rats = settings: cited from earlier work

Row | SMILES | Tumor incidences in 2 year carcinogenicity bioassay [1] | Weight gain [2] | Uterine and mammary tumors (rats)
1 | COC(=O)[C@H](c1ccccc1Cl)N1CCc2sccc2C1 [Clopidogrel] | did not alter tumor incidences | – | –
2 | CC(C)C[C@H]1C(=O)N2CCC[C@H]2[C@]2(O)O[C@](NC(=O)[C@@H]3C=C4c5cccc6[nH]c(Br)c(c56)C[C@H]4N(C)C3)(C(C)C)C(=O)N12 [bromocriptine] | – | inhibited weight gain | increases uterine and decreases mammary tumors only in rats
